Source: ChEMBL document CHEMBL1123539, “[p-[(Thienylcarbonyl)amino]phenoxy]propanolamines derivatives as diuretic and beta-adrenergic receptor blocking agents” (1986)
Each block holds one compound with its values, some of them ahead of it.

Experiments:
Rattus norvegicus [1] = assay: Compound was tested for oral salidiuretic activity (control/drug treatment value) in rats expressed in Na+, mequiv/6 hr at a dose of 128 mg/kg; 0.201/1.197; format: functional, Urine
[2] = target: Beta-1 adrenergic receptor (Homo sapiens) (UniProt P08588); settings: Canis lupus familiaris
Sequence of Beta-1 adrenergic receptor (Homo sapiens) (P08588 whole entry, looked up): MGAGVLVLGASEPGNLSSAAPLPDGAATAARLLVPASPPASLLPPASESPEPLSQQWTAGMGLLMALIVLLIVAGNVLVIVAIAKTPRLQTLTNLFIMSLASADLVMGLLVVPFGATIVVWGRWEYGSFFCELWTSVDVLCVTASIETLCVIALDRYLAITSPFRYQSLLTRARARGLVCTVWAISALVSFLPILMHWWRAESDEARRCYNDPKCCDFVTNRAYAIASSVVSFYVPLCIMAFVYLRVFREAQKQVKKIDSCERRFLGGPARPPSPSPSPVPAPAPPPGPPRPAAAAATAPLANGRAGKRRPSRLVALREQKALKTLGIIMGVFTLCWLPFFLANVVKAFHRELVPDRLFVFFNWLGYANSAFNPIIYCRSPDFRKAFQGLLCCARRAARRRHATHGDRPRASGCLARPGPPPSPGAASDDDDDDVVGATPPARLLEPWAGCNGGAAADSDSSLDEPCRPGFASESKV
Description: Compound was tested for beta-1 adrenergic receptor blocking activity in dogs

Rattus norvegicus [3] = assay: Compound was tested for oral salidiuretic activity (control/drug treatment value) in rats expressed as urinary output. at a dose of 128 mg/kg; 7.33/13.83; format: functional, Urine
[4] = target: Beta-2 adrenergic receptor (Canis lupus familiaris) (UniProt P54833)
Sequence of Beta-2 adrenergic receptor (Canis lupus familiaris) (P54833 whole entry, looked up): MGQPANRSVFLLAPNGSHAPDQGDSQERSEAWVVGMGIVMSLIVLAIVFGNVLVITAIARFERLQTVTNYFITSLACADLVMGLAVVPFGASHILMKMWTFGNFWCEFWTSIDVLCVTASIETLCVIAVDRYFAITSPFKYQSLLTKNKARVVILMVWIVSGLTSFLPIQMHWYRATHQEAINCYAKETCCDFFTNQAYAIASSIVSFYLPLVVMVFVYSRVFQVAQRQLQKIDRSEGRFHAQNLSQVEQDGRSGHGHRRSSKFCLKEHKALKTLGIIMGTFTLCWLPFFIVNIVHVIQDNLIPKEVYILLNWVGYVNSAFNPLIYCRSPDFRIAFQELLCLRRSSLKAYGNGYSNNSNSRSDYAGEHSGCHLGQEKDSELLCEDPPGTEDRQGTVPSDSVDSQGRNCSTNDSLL
Description: The compound was tested for beta-2 adrenergic receptor blocking activity in dogs

Rattus norvegicus [5] = assay: Compound was tested for oral salidiuretic activity (control/drug treatment value) in rats expressed as urinary output. at a dose of 32 mg/kg; 7.87/8.10; format: functional, Urine
Rattus norvegicus [6] = assay: Compound was tested for oral salidiuretic activity (control/drug treatment value) in rats expressed in Na+, mequiv/6 hr at a dose of 32 mg/kg; 0.177/0.305; format: functional, Urine
Rattus norvegicus [7] = assay: Compound was tested for oral salidiuretic activity (control/drug treatment value) in rats expressed in Na+, mequiv/6 hr at a dose of 128 mg/kg; 0.198/0.885; format: functional, Urine
Rattus norvegicus [8] = assay: Compound was tested for oral salidiuretic activity (control/drug treatment value) in rats expressed as urinary output. at a dose of 128 mg/kg; 8.17/12.83; format: functional, Urine
Rattus norvegicus [9] = assay: Compound was tested for oral salidiuretic activity (control/drug treatment value) in rats expressed in Na+, mequiv/6 hr at a dose of 128 mg/kg; 0.186/0.179; format: functional, Urine
Rattus norvegicus [10] = assay: Compound was tested for oral salidiuretic activity (control/drug treatment value) in rats expressed as urinary output. at a dose of 128 mg/kg; 8.42/6.25; format: functional, Urine
Rattus norvegicus [11] = assay: Compound was tested for oral salidiuretic activity (control/drug treatment value) in rats expressed in Na+, mequiv/6 hr at a dose of 64 mg/kg; 0.140/0.355; format: functional, Urine
Rattus norvegicus [12] = assay: Compound was tested for oral salidiuretic activity (control/drug treatment value) in rats expressed as urinary output. at a dose of 64 mg/kg; 10.33/9.33; format: functional, Urine
Rattus norvegicus [13] = assay: Compound was tested for oral salidiuretic activity (control/drug treatment value) in rats expressed in Na+, mequiv/6 hr at a dose of 128 mg/kg; 0.202/0.961; format: functional, Urine
Rattus norvegicus [14] = assay: Compound was tested for oral salidiuretic activity (control/drug treatment value) in rats expressed as urinary output. at a dose of 128 mg/kg; 7.17/11.25; format: functional, Urine
Rattus norvegicus [15] = assay: Compound was tested for oral salidiuretic activity (control/drug treatment value) in rats expressed in Na+, mequiv/6 hr at a dose of 128 mg/kg; 0.186/0.243; format: functional, Urine
Rattus norvegicus [16] = assay: Compound was tested for oral salidiuretic activity (control/drug treatment value) in rats expressed as urinary output. at a dose of 128 mg/kg; 8.42/6.75; format: functional, Urine
Rattus norvegicus [17] = assay: Compound was tested for oral salidiuretic activity (control/drug treatment value) in rats expressed as urinary output. at a dose of 128 mg/kg; 7.67/6.97; format: functional, Urine
Rattus norvegicus [18] = assay: Compound was tested for oral salidiuretic activity (control/drug treatment value) in rats expressed in Na+, mequiv/6 hr at a dose of 128 mg/kg; 0.310/0.148; format: functional, Urine
Rattus norvegicus [19] = assay: Compound was tested for oral salidiuretic activity (control/drug treatment value) in rats expressed as urinary output. at a dose of 64 mg/kg; 7.33/10; format: functional, Urine
Rattus norvegicus [20] = assay: Compound was tested for oral salidiuretic activity (control/drug treatment value) in rats expressed as urinary output. at a dose of 32 mg/kg; 7.33/9.17; format: functional, Urine
Rattus norvegicus [21] = assay: Compound was tested for oral salidiuretic activity (control/drug treatment value) in rats expressed as urinary output. at a dose of 16 mg/kg; 7.33/9.75; format: functional, Urine
Rattus norvegicus [22] = assay: Compound was tested for oral salidiuretic activity (control/drug treatment value) in rats expressed in Na+, mequiv/6 h at a dose of 64 mg/kg; 0.205/0.514; format: functional, Urine
Rattus norvegicus [23] = assay: Compound was tested for oral salidiuretic activity (control/drug treatment value) in rats expressed in Na+, mequiv/6 h at a dose of 128 mg/kg; 0.205/0.712; format: functional, Urine
Rattus norvegicus [24] = assay: Compound was tested for oral salidiuretic activity (control/drug treatment value) in rats expressed in Na+, mequiv/6 hr at a dose of 16 mg/kg; 0.205/0.350; format: functional, Urine
Rattus norvegicus [25] = assay: Compound was tested for oral salidiuretic activity (control/drug treatment value) in rats expressed as urinary output. at a dose of 128 mg/kg; 7.33/11.50; format: functional, Urine
Rattus norvegicus [26] = assay: Compound was tested for oral salidiuretic activity (control/drug treatment value) in rats expressed in Na+, mequiv/6 hr at a dose of 32 mg/kg; 0.205/0.358; format: functional, Urine

ID50 [2]: 0.32 mg/kg
ID50 [4]: > 1 mg/kg
Compound: CC(C)OC(=O)c1cc(NC(=O)c2cccs2)ccc1OCC(O)CNC(C)(C)C (configuration not stated)
Activity (Rattus norvegicus [1]): 0.21
Activity (Rattus norvegicus [3]): 7.33 mL

ID50 [2]: 0.022 mg/kg
ID50 [4]: > 1 mg/kg
Compound: CC(=O)c1cc(NC(=O)c2cccs2)ccc1OCC(O)CNC(C)(C)C (configuration not stated)
Activity (Rattus norvegicus [5]): 7.87 mL
Activity (Rattus norvegicus [6]): 0.177

ID50 [2]: 0.25 mg/kg
ID50 [4]: > 1 mg/kg
Compound: COC(=O)c1cc(NC(=O)c2cccs2)ccc1OCC(O)CNC(C)C (configuration not stated)
Activity (Rattus norvegicus [7]): 0.198
Activity (Rattus norvegicus [8]): 8.17 mL

ID50 [2]: 0.004 mg/kg
ID50 [4]: 0.6 mg/kg
Compound: CCOC(=O)c1cc(NC(=O)Cc2cccs2)ccc1OCC(O)CNC(C)(C)C (configuration not stated)
Activity (Rattus norvegicus [9]): 0.186
Activity (Rattus norvegicus [10]): 8.42 mL

ID50 [2]: 0.014 mg/kg
ID50 [4]: 0.4 mg/kg
Compound: CC(C)(C)NCC(O)COc1ccc(NC(=O)c2cccs2)cc1Cl (configuration not stated)
Activity (Rattus norvegicus [11]): 0.14
Activity (Rattus norvegicus [12]): 10.33 mL

ID50 [2]: 0.27 mg/kg
ID50 [4]: > 1 mg/kg
Compound: CCCOC(=O)c1cc(NC(=O)c2cccs2)ccc1OCC(O)CNC(C)(C)C (configuration not stated)
Activity (Rattus norvegicus [13]): 0.202
Activity (Rattus norvegicus [14]): 7.17 mL

ID50 [2]: 0.015 mg/kg
ID50 [4]: 0.38 mg/kg
Compound: CCOC(=O)c1cc(NC(=O)Cc2ccsc2)ccc1OCC(O)CNC(C)(C)C (configuration not stated)
Activity (Rattus norvegicus [15]): 0.186
Activity (Rattus norvegicus [16]): 8.42 mL

ID50 [2]: 0.12 mg/kg
ID50 [4]: > 1 mg/kg
Compound: CC(C)(C)NCC(O)COc1ccc(NC(=O)c2cccs2)cc1C(N)=O (configuration not stated)
Activity (Rattus norvegicus [17]): 7.67 mL
Activity (Rattus norvegicus [18]): 0.301

ID50 [2]: 0.3 mg/kg
ID50 [4]: 0.45 mg/kg
Compound: CCOC(=O)c1cc(NC(=O)c2cccs2)ccc1OCC(O)CNC(C)C (configuration not stated)
Activity (Rattus norvegicus [19]): 7.33 mL
Activity (Rattus norvegicus [20]): 7.33 mL
Activity (Rattus norvegicus [21]): 7.33 mL
Activity (Rattus norvegicus [22]): 0.205
Activity (Rattus norvegicus [23]): 0.205
Activity (Rattus norvegicus [24]): 0.205
Activity (Rattus norvegicus [25]): 7.33 mL
Activity (Rattus norvegicus [26]): 0.205
